The test system of experiment [1] is mouse colon cancer, Colon26. Kind of experiment: Antitumor effect against tumor-bearing mouse (1). It is filed as in vivo. The conditions noted are these: 8th day after initiation of administration, once intravenously, volume on day of administration = 1.0, average ± SD. The source says: Tumor of mouse colon cancer, Colon26, maintained by subcutaneous subculture in mice, was minced into about 2-mm square blocks, and the blocks were transplanted subcutaneously on the dorsal part of a mouse using a trocar. On the 7th day after tumor transplantation, the compound of Example 5 dissolved in a 5% glucose injection solution and gemcitabine hydrochloride as a control drug dissolved in physiological saline were respectively administered once intravenously at the doses indicated in Table 2. The tumor volumes on the day of initiation of administration and on the 8th day after the initiation of administration were calculated by the following equation, and the relative tumor volumes on the day of initiation of administration and on the 8th day after the initiation of administration were determined.

Experiment [2] relates to mouse colon cancer, Colon26. The experiment can be described thus: Antitumor effect against tumor-bearing mouse (2). It is filed as in vivo. To be noted: once intravenously, dose 160 in terms of gemcitabine hydrochloride, average ± SD. The source says:
A tumor mass of mouse colon cancer, Colon26, which had been subcutaneously subcultured in a mouse was cut into a block having an edge of about 2 mm at each side, and was transplanted under the skin of a mouse using a trocar. On the 7th day after tumor transplantation, the compound of Example 11, the compound of Example 14 and the compound of Example 17, dissolved in a 5% glucose injection solution and gemcitabine hydrochloride as a control drug dissolved in physiological saline were respectively administered once intravenously at the doses indicated in Table 3. The tumor volumes on the day of initiation of administration, and on the 7th day and 26th day after the initiation of administration were calculated by the above-described equation, and the relative tumor volumes on the day of initiation of administration and on the 7th day and 26th day after the initiation of administration were determined.

Structures are written as SMILES. Where a name gives a salt, the structure may show the parent alone.

On to `Nc1ccn([C@@H]2O[C@H](CO)[C@@H](O)C2(F)F)c(=O)n1` [Control drug, gemcitabine hydrochloride], for which the figures for the Relative tumor volume in experiment [1] (dose 40 mg/kg in terms of gemcitabine hydrochloride) and in experiment [1] (dose 200 mg/kg in terms of gemcitabine hydrochloride) were 5.3 ± 1.1 and 4.8 ± 1.7, respectively. Also, in experiment [2] (7th day after initiation of administration), the “Relative tumor volume *” value is 1.5 ± 1.5. In addition, the “Relative tumor volume **” value in experiment [2] (26th day after initiation of administration) came out at 25.8 ± 36.0.

The record behind these values is patent US8188222B2, “High molecular weight derivative of nucleic acid antimetabolite” (priority 2006, dated 2012).
